Tests used:
(His)6-ACBP6 [1] = target: T1, (His)6-ACBP6 (Arabidopsis thaliana, UniProt P57752); assay: in vitro filter-binding assay, (His)6-ACBP6/lipid binding on nitrocellulose; details: 1 μg/ml (His)6-ACBP6
T1 construct: made in house; host or cells: Escherichia coli
Procedure: A, Purification of (His)6-ACBP6 recombinant protein. […] M, marker; lane 1, flow through fraction; lane 2, washing fraction at pH 6.3; lanes 3-8, eluted fractions at pH 5.9; lanes 9-12, eluted fractions at pH 4.5. B, (His)6-ACBP6/lipid binding on filters. Various concentrations (0, 12.5, 25.0 and 32.5 μM) of lipids (PA, PC and LysoPC) were spotted onto nitrocellulose and incubated with 1 μg/ml of purified (His)6-ACBP6 protein. The (His)6-ACBP6/lipid binding was detected by immunoblotting with HRP-conjugated anti-penta-His antibodies. C, Effect of PC acyl species on (His)6-ACBP6/lipid binding. Fifty μM lipid (PC, 16:0-PC, 18:0-PC, 18:1-PC, 18:2-PC or DMPC) spotted onto nitrocellulose was incubated with 1 μg/ml of purified (His)6-ACBP6 protein. The (His)6-ACBP6/lipid binding was detected by immunoblotting with HRP-conjugated anti-penta-His antibodies. […]
Expression and purification of His-tagged ACBP6 recombinant protein was carried out according to Xiao et al. (Plant J 54: 141-151, 2008). […] Following incubated with the HRP-conjugated anti-penta-His antibodies (1:2,000; QIAGEN, Cat. No. 1014922) for 1 h at RT, the filter was again washed 3 times with TTBS, each for 10 min and then detected with the ECL Western Blotting Detection Kit (Amersham) following the manufacturer's protocols.
T1 sequence (P57752 other isoform, or with tags, fused parts or gaps): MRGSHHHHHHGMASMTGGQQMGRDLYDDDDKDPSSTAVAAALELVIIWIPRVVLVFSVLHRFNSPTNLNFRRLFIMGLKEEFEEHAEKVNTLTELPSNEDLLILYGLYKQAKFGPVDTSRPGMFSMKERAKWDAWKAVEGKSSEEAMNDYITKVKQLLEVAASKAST

(His)6-ACBP4 = target: T2, (His)6-ACBP4 (Arabidopsis thaliana, UniProt Q9MA55); details: recombinant (His)6-ACBP4; read-out: dissociation constant (Kd) in binding oleoyl-CoA esters; cited from earlier work
T2 construct: (His)6
T2 sequence (Q9MA55 1-668): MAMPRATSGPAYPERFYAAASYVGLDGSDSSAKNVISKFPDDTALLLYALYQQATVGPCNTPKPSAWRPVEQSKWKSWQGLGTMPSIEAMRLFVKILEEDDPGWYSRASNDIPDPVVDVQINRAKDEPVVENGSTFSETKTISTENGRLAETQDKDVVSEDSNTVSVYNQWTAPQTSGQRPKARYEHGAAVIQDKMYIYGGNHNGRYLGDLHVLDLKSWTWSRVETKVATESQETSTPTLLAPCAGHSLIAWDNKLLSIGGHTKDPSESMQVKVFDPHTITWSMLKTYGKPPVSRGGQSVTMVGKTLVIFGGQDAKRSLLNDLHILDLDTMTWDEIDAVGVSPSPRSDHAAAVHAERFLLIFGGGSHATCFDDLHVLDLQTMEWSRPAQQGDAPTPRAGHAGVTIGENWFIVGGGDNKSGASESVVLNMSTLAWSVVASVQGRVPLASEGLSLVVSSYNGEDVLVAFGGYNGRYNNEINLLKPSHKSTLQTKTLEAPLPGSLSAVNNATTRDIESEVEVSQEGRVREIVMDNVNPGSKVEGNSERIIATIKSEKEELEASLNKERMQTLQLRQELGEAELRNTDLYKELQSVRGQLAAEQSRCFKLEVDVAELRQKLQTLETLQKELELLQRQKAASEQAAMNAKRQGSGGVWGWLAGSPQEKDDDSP

(His)6-ACBP5 = target: T3, (His)6-ACBP5 (Arabidopsis thaliana, UniProt Q8RWD9); details: recombinant (His)6-ACBP5; read-out: dissociation constant (Kd) in binding oleoyl-CoA esters; cited from earlier work
T3 construct: (His)6
T3 sequence (Q8RWD9 1-648): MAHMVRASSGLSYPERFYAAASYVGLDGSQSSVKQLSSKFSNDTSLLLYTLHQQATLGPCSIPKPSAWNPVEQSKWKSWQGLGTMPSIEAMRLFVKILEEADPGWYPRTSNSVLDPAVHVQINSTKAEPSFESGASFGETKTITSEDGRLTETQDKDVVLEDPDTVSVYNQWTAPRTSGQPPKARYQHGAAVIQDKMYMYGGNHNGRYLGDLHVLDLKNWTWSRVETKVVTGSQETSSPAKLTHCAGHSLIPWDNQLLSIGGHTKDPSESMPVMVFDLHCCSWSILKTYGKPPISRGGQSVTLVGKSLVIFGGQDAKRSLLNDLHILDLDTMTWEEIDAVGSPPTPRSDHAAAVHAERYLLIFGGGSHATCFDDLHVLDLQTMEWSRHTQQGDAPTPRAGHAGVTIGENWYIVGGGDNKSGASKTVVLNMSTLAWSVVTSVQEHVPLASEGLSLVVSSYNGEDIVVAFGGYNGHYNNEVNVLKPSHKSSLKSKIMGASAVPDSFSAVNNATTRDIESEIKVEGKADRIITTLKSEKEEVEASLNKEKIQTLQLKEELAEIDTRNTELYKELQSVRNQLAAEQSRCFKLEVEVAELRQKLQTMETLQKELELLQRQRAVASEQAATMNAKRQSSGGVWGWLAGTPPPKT

(His)6-ACBP6 [2] = target: T4, (His)6-ACBP6 (Arabidopsis thaliana, UniProt P57752); details: recombinant (His)6-ACBP6; read-out: dissociation constant (Kd) in binding oleoyl-CoA esters; cited from earlier work
T4 construct: (His)6
T4 sequence (P57752 1-92): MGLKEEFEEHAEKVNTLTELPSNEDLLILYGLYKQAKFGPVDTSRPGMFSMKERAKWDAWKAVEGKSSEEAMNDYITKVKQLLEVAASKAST

CCCCCCCCCCCCCC(=O)OC[C@H](COP(=O)([O-])OCC[N+](C)(C)C)OC(=O)CCCCCCCCCCCCC [DMPC, 1,2-dimyristoyl-sn-glycero-3-phosphocholine]
effect of PC acyl species on (His)6-ACBP6/lipid binding ((His)6-ACBP6 [1]; 50 μM lipid spotted, FIG. 7C): did not bind

1,2-diacyl-sn-glocero-3-phosphocholine [PC]
(His)6-ACBP6/lipid binding on filters ((His)6-ACBP6 [1]; 0, 12.5, 25.0 and 32.5 μM lipid spotted, FIG. 7B): binds

CCCCCCCC/C=C\CCCCCCCC(=O)SCCNC(=O)CCNC(=O)[C@H](O)C(C)(C)COP(=O)(O)OP(=O)(O)OC[C@H]1O[C@@H](n2cnc3c(N)ncnc32)[C@H](O)[C@@H]1OP(=O)(O)O [oleoyl-CoA]
Kd ((His)6-ACBP4): 560 nM | Kd ((His)6-ACBP5): 680 nM | Kd ((His)6-ACBP6 [2]): 3700 nM

From patent US8378172B2, “Methods using acyl-CoA binding proteins to enhance low-temperature tolerance in genetically modified plants” (The University of Hong Kong, priority 2009, dated 2013)
